Measurements reported in the NIST ThermoML archive (doi:10.1016/j.fluid.2004.12.009).

Experiments:
[1] = xn = mol fraction of the nth substance listed; conditions: 298.15 K, Drop volume
[2] = 298.15 K, Drop volume

CCCOC(=O)CC [propyl propanoate] + Cc1ccc(C)cc1
[1]
Conditions | surface tension liquid-gas [mN/m]
x1 = 0.061 | 27.46
x1 = 0.0898 | 27.35
x1 = 0.1545 | 27.09
x1 = 0.2219 | 26.82
x1 = 0.2558 | 26.69
x1 = 0.3257 | 26.42
x1 = 0.388 | 26.18
x1 = 0.4204 | 26.07
x1 = 0.4851 | 25.83
x1 = 0.5211 | 25.71
x1 = 0.5809 | 25.5
x1 = 0.6209 | 25.38
x1 = 0.6846 | 25.17
x1 = 0.7187 | 25.07
x1 = 0.7976 | 24.82
x1 = 0.8562 | 24.62
x1 = 0.8779 | 24.56
x1 = 0.9544 | 24.28

CCCOC(=O)CC [propyl propanoate] + Cc1ccccc1C
[1]
Conditions | surface tension liquid-gas [mN/m]
x1 = 0.0587 | 28.88
x1 = 0.0915 | 28.66
x1 = 0.1548 | 28.27
x1 = 0.2236 | 27.85
x1 = 0.2531 | 27.68
x1 = 0.3216 | 27.3
x1 = 0.3862 | 26.95
x1 = 0.4212 | 26.77
x1 = 0.4836 | 26.45
x1 = 0.517 | 26.29
x1 = 0.5814 | 25.98
x1 = 0.6503 | 25.64
x1 = 0.6829 | 25.49
x1 = 0.7507 | 25.17
x1 = 0.7823 | 25.03
x1 = 0.8909 | 24.54
x1 = 0.9636 | 24.23

Cc1ccccc1C [1,2-dimethylbenzene]
Conditions | surface tension liquid-gas [mN/m]
[2] | 29.27

Cc1cccc(C)c1 [1,3-dimethylbenzene]
Conditions | surface tension liquid-gas [mN/m]
[2] | 28.03

Cc1ccc(C)cc1 [1,4-dimethylbenzene]
Conditions | surface tension liquid-gas [mN/m]
[2] | 27.7

CCCOC(=O)CC [propyl propanoate]
Conditions | surface tension liquid-gas [mN/m]
[2] | 24.1

CCCOC(=O)CC [propyl propanoate] + Cc1cccc(C)c1
[1]
Conditions | surface tension liquid-gas [mN/m]
x1 = 0.0621 | 27.69
x1 = 0.0989 | 27.5
x1 = 0.1636 | 27.19
x1 = 0.2293 | 26.88
x1 = 0.2608 | 26.74
x1 = 0.3264 | 26.45
x1 = 0.4215 | 26.07
x1 = 0.6132 | 25.34
x1 = 0.7485 | 24.86
x1 = 0.7827 | 24.74
x1 = 0.8542 | 24.52
x1 = 0.8896 | 24.41
